From ChEMBL document CHEMBL4049439, “Synthesis and Characterization of Tetrahydropyran-Based Bacterial Topoisomerase Inhibitors with Antibacterial Activity against Gram-Negative Bacteria” (J Med Chem, 2017)
Converted amounts (≈) assume the structure as drawn. The source made the active and inactive calls. No cut-off for these calls is given here.

Tests used:
[1] = Inhibition of wild-type Escherichia coli DNA topoisomerase-4 mediated supercoiled pBR322 DNA relaxation by ethidium bromide based agarose gel electrophoresis
[2] = (§1) Inhibition of wild-type Acinetobacter baumannii DNA gyrase supercoiling activity using relaxed pBR322 DNA as substrate by ethidium bromide based agarose gel electrophoresis
Staphylococcus aureus = assay: Antibacterial activity against Staphylococcus aureus ATCC 29213 by CLSI broth microdilution method; format: functional
Escherichia coli = assay: Antibacterial activity against wild-type Escherichia coli ATCC 25922 by CLSI broth microdilution method; format: functional
[3] = (§2) Inhibition of wild-type Pseudomonas aeruginosa DNA gyrase supercoiling activity using relaxed pBR322 DNA as substrate by ethidium bromide based agarose gel electrophoresis
[4] = (§3) Inhibition of wild-type Acinetobacter baumannii DNA topoisomerase-4 mediated supercoiled pBR322 DNA relaxation by ethidium bromide based agarose gel electrophoresis
Pseudomonas aeruginosa [5] = assay: Antibacterial activity against Pseudomonas aeruginosa ATCC 27853 by CLSI broth microdilution method; format: functional
Acinetobacter baumannii [6] = assay: Antibacterial activity against fluoroquinolone-resistant Acinetobacter baumannii T6474 by CLSI broth microdilution method; format: functional
[7] = Inhibition of wild-type Escherichia coli DNA gyrase supercoiling activity using relaxed pBR322 DNA as substrate by ethidium bromide based agarose gel electrophoresis
[8] = (§4) Inhibition of wild-type Pseudomonas aeruginosa DNA topoisomerase-4 mediated supercoiled pBR322 DNA relaxation by ethidium bromide based agarose gel electrophoresis
Acinetobacter baumannii [9] = assay: as §1
Pseudomonas aeruginosa [10] = assay: as §2
Acinetobacter baumannii [11] = assay: as §3
Pseudomonas aeruginosa [12] = assay: as §4
[13] = Lipophilicity, log D of the compound at pH 7.4; format: physicochemical; settings: buffer

| inhibition (Acinetobacter baumannii [9]) | inhibition (Pseudomonas aeruginosa [10]) | inhibition (Acinetobacter baumannii [11]) | inhibition (Pseudomonas aeruginosa [12]) | logD [13] | SMILES | IC50 [1] [nM] | IC50 [2] [nM] | MIC (Staphylococcus aureus) [µg/mL] | MIC (Escherichia coli) [µg/mL] | IC50 [3] [nM] | IC50 [4] [nM] | MIC (Pseudomonas aeruginosa [5]) [µg/mL] | MIC (Acinetobacter baumannii [6]) [µg/mL] | IC50 [7] [nM] | IC50 [8] [nM] |
| --- | --- | --- | --- | --- | --- | --- | --- | --- | --- | --- | --- | --- | --- | --- | --- |
| – | – | – | – | – | COc1ccc2ccc(=O)n(C[C@H](N)[C@@H]3CC[C@@H](NCc4ccc5c(n4)NC(=O)CO5)CO3)c2c1 | 30 | 125 | 0.25 (≈ 0.521 µM) | 0.25 (≈ 0.521 µM) | 125 | 125 | 4 (≈ 8.34 µM) | 2 (≈ 4.17 µM) | 125 | 500 |
| – | – | – | – | – | COc1cnc2ccc(=O)n(C[C@H](N)[C@@H]3CC[C@@H](NCc4ccc5c(n4)NC(=O)CO5)CO3)c2n1 | 30 | 125 | 0.5 (≈ 1.04 µM) | 0.5 (≈ 1.04 µM) | 125 | 30 | 1 (≈ 2.08 µM) | 2 (≈ 4.15 µM) | 500 | 30 |
| – | – | – | – | – | O=C(O)c1cn(C2CC2)c2cc(N3CCNCC3)c(F)cc2c1=O [CIPROFLOXACIN] | – | 2000 | – | – | 500 | 32000 | – | – | – | 8000 |
| inactive | inactive | inactive | inactive | – | COc1ccc2nccc([C@@H](N)C[C@@H]3CC[C@@H](NCc4ccc5c(n4)NC(=O)CO5)CO3)c2n1 | – | – | – | – | – | – | – | – | – | – |
| – | – | – | – | 2 | COc1ccc2ncc(F)c(C[C@H](O)C34CCC(NCc5ccc6c(n5)NC(=O)CO6)(CC3)CO4)c2n1 | – | – | – | – | – | – | – | – | – | – |
| – | – | – | – | – | COc1ccc2ccc(=O)n(C[C@H](O)[C@@H]3CC[C@@H](NCc4cc5c(nn4)OCCO5)CO3)c2n1 | 2000 | 8000 | 0.06 (≈ 0.128 µM) | > 8 | 8000 | 8000 | > 8 | > 8 | 32000 | 500 |
| – | – | – | – | – | COc1ccc2ncc(F)c(C[C@@H](N)[C@@H]3CC[C@@H](NCc4ccc5c(n4)NC(=O)CO5)CO3)c2n1 | 125 | 500 | 1 (≈ 2.07 µM) | 1 (≈ 2.07 µM) | 125 | 125 | > 8 | 1 (≈ 2.07 µM) | 500 | 125 |
| – | – | – | – | – | COc1ccc2nccc(C(N)C[C@@H]3CC[C@@H](NCc4ccc5c(n4)NC(=O)CO5)CO3)c2n1 (mixture of isomers) | 125 | 2000 | 2 | 1 | 500 | 125 | 8 | 8 | 8000 | 125 |
| inactive | inactive | inactive | inactive | – | COc1ccc2nccc([C@H](N)C[C@@H]3CC[C@@H](NCc4ccc5c(n4)NC(=O)CO5)CO3)c2n1 | – | – | – | – | – | – | – | – | – | – |
| – | – | – | – | – | COc1ccc2ncc(F)c(C[C@H](O)[C@@H]3CC[C@@H](NCc4cc5c(nn4)OCCS5)CO3)c2n1 | – | 2000 | – | – | 500 | 125 | – | 2 (≈ 4.1 µM) | – | 125 |
| – | – | – | – | – | COc1ccc2nccc(C[C@H](N)[C@@H]3CC[C@@H](NCc4ccc5c(n4)NC(=O)CO5)CO3)c2n1 | 30 | 125 | 0.06 (≈ 0.129 µM) | 0.125 (≈ 0.269 µM) | 125 | 30 | 0.5 (≈ 1.08 µM) | 0.25 (≈ 0.538 µM) | 125 | 30 |
| – | – | – | – | – | COc1ccc2ncc(=O)n(C[C@H](N)[C@@H]3CC[C@@H](NCc4ccc5c(n4)NC(=O)CO5)CO3)c2n1 | 125 | 125 | 0.125 (≈ 0.26 µM) | 0.5 (≈ 1.04 µM) | 125 | 125 | 2 (≈ 4.15 µM) | 2 (≈ 4.15 µM) | 500 | 30 |
| – | – | – | – | – | COc1ccc2ccc(=O)n(C[C@H](O)[C@@H]3CC[C@@H](NCc4cc5c(cn4)OCCS5)CO3)c2n1 | 30 | 125 | ≤ 0.03 | 4 (≈ 8.25 µM) | 500 | 30 | > 8 | 0.5 (≈ 1.03 µM) | 500 | ≤ 10 |
| – | – | – | – | – | COc1ccc2ncc(=O)n(C[C@H](N)[C@@H]3CC[C@@H](NCc4ccc5c(n4)NC(=O)CO5)CO3)c2c1 | 30 | 30 | 0.063 (≈ 0.131 µM) | 0.25 (≈ 0.52 µM) | 30 | 125 | 4 (≈ 8.32 µM) | 2 (≈ 4.16 µM) | 500 | 30 |
| – | – | – | – | – | COc1cnc2ccc(=O)n(C[C@H](N)[C@@H]3CC[C@@H](NCc4ccc5c(n4)NC(=O)CO5)CO3)c2c1 | 30 | 30 | 1 (≈ 2.08 µM) | 1 (≈ 2.08 µM) | 30 | 125 | 4 (≈ 8.32 µM) | 4 (≈ 8.32 µM) | 500 | 30 |
| – | – | – | – | – | COc1ccc2ccc(F)c(C[C@H](N)[C@@H]3CC[C@@H](NCc4ccc5c(n4)NC(=O)CO5)CO3)c2n1 | ≤ 10 | 30 | 0.03 (≈ 0.0623 µM) | ≤ 0.03 | 30 | 30 | 1 (≈ 2.08 µM) | ≤ 0.03 | 30 | 30 |
| – | – | – | – | – | COc1ccc2ccc(=O)n(C[C@H](O)[C@@H]3CC[C@@H](NCc4cc5c(nn4)OCCS5)CO3)c2n1 | 125 | 2000 | 0.031 (≈ 0.0638 µM) | > 8 | 500 | 500 | > 8 | 8 (≈ 16.5 µM) | 8000 | 125 |
| – | – | – | – | – | COc1ccc2ccc(=O)n(C[C@H](O)[C@@H]3CC[C@@H](NCc4cc5c(cn4)OCCO5)CO3)c2n1 | 125 | 125 | ≤ 0.03 | 4 (≈ 8.54 µM) | 125 | 125 | > 8 | 0.5 (≈ 1.07 µM) | 8000 | 125 |
| – | – | – | – | – | COc1ccc2nccc(CC(N)[C@@H]3CC[C@@H](NCc4ccc5c(n4)NC(=O)CO5)CO3)c2n1 (mixture of isomers) | 500 | 500 | 0.125 | 0.125 | 500 | 500 | 2 | 0.5 | 500 | 500 |
